Experimental data: publication PMC7571145, “Multistep Synthesis and In Vitro Anticancer Evaluation of 2-Pyrazolyl-Estradiol Derivatives, Pyrazolocoumarin-Estradiol Hybrids and Analogous Compounds” (Molecules, 2020)

How the values were obtained:
[1] = tested on: HeLa cells; assay: MTT cytotoxicity assay on HeLa cells; assay type: cell-based; details: 72 h; for primary growth inhibitory screen, cell viability, HeLa: 2.5 µM, mean±SD, untreated control about 100; for IC50: Homo sapiens, HeLa, compounds 1-7 µM, mean ± SD, read-out: IC50 on HeLa
Procedure: (§1) Cytotoxicity screens were performed to assess the in vitro anticancer activity of the synthesized A-ring-linked 2-pyrazoles of estradiol, the pyrazolocoumarin-estradiol hybrids, and their structurally simplified non-steroidal analogs on various cancerous cell lines such as MCF-7, PC-3, DU145, and HeLa and on non-cancerous MRC-5 fibroblasts. The 2-acetyl-phenol starting materials (4, 5, and 15) were also included for comparison. All compounds were applied in 2.5 µM concentration for 72 h. The obtained cell viability data were used to construct a heat map (Figure 2) in order to select compounds that exert cancer cell line-specific cytotoxicity. […] Furthermore, some compounds discriminated only DU145 cells and could eliminate these type of prostate cancer cells.
(§2) To understand structure-function relationships, we also included the structural analogs of the selected compounds, namely 7a (C-17 acetate of 8a), 8c (C-17 OH counterpart of 7c), and 9a (steroidal pair of 19a) into subsequent analyses. […] For this, compounds were applied on MCF-7, PC-3, DU145, and HeLa and on non-cancerous MRC-5 fibroblasts in various concentrations for 72 h or were treated with cisplatin at different concentrations. On the viability data, dose–response curves were fitted (Figure S1) and IC50 values were calculated accordingly (Table 3). In agreement with the primary cytotoxicity screen (Table S1), the obtained IC50 concentrations clearly indicated which compound was selectively effective on one or more cancer cell lines. […] Typically, acetylated steroidal pyrazoles were less favorable than deacetylated counterparts due to reduced cancer cell selectivity (7c, 10a).
(§3) To evaluate the in vitro pharmacological effects of the synthesized molecules, each compound was first dissolved in cell culture grade DMSO (Sigma) to a final concentration of 10 mM. Using MTT colorimetric assay, the cytotoxicity of these compounds was evaluated on cancerous (MCF-7, HeLa, DU145, PC-3) and non-cancerous (MRC-5) cell lines. Briefly, 5000 cells/well of each cell line were seeded in 96-well plates and were left to grow overnight in a 5% CO2 atmosphere at 37 °C. On the next day, cells were treated with each derivative separately, in case of the primary screen, or only with the selected compounds upon IC50 determination. Cells were incubated with the test compounds for 72 h in a 5% CO2 atmosphere at 37 °C. End point was measured by incubating cells for 1 h with 0.5 mg/mL of MTT reagent (Serva) dissolved in serum free culture medium. The formazan crystals formed by metabolically active cells were later dissolved in DMSO. Optical density of the obtained solutions was measured at 570 nm using a Synergy HTX plate reader. […] The analysis and conclusions were made based on three independent experiments. Normalized data were analyzed and the heat map was constructed using GraphPad Prism 7 software.

[2] = tested on: DU145 cells; assay: MTT cytotoxicity assay on DU145 prostate cancer cells; assay type: cell-based; details: for primary growth inhibitory screen, cell viability, DU145: 2.5 µM, 72 h, mean±SD, untreated control about 100; for IC50: Homo sapiens, DU-145, 72 h, compounds 1-7 µM, mean ± SD, read-out: IC50 on DU145
Procedure: as §1, §2, §3

[3] = tested on: MRC-5 fibroblasts; assay: MTT cytotoxicity assay on non-cancerous MRC-5 fibroblasts; assay type: cell-based; details: 72 h; for primary growth inhibitory screen, cell viability, MRC-5 / effect on non-cancerous fibroblasts: 2.5 µM; for primary growth inhibitory screen, cell viability, MRC-5 / IC50: MTT; for primary growth inhibitory screen, cell viability, MRC-5: mean±SD, untreated control about 100; for effect on non-cancerous fibroblasts: based on the heat map; for IC50: Homo sapiens, MRC5, compounds 1-7 µM, mean ± SD, read-out: IC50 on MRC-5
Procedure: as §1, §2, §3

[4] = tested on: MCF-7 cells; assay: MTT cytotoxicity assay on MCF-7 cells; assay type: cell-based; details: for primary growth inhibitory screen, cell viability, MCF-7: 2.5 µM, 72 h, mean±SD, untreated control about 100; for IC50: Homo sapiens, MCF7, 72 h, compounds 1-7 µM, mean ± SD, read-out: IC50 on MCF-7
Procedure: as §1, §2, §3

[5] = tested on: PC-3 cells; assay: MTT cytotoxicity assay on PC-3 prostate cancer cells; assay type: cell-based; details: for primary growth inhibitory screen, cell viability, PC-3: 2.5 µM, 72 h, mean±SD, untreated control about 100; for IC50: Homo sapiens, PC-3, 72 h, compounds 1-7 µM, mean ± SD, read-out: IC50 on PC-3
Procedure: as §1, §2, §3

Compound	primary growth inhibitory screen, cell viability, HeLa [1]	IC50 [1]	primary growth inhibitory screen, cell viability, DU145 [2]	IC50 [2]	primary growth inhibitory screen, cell viability, MRC-5 [3]	effect on non-cancerous fibroblasts [3]	IC50 [3]	primary growth inhibitory screen, cell viability, MCF-7 [4]	IC50 [4]	melting point	primary growth inhibitory screen, cell viability, PC-3 [5]	IC50 [5]
O=Cc1cn(-c2ccccc2)nc1-c1cc2c(cc1O)CCCC2 [Compound 17a, 3′-(3-Hydroxy-5,6,7,8-tetrahydronaphthalen-2-yl)-1′-phenyl-1′H-pyrazole-4′-carbaldehyde]	53.7±3.3	2.2 ± 1.1 µM	≥ 100±6.4	5.62 ± 1 µM	≥ 100±7.3	no or very mild effect	6.26 ± 1.1 µM	≥ 100±2.3	5.17 ± 1 µM	137 to 138 °C	71.0±20.9	4.3 ± 1 µM
O=Cc1cn(-c2ccc(Cl)cc2)nc1-c1cc2c(cc1O)CCCC2 [Compound 17c, 1′-(4″-Chlorophenyl)-3′-(3-hydroxy-5,6,7,8-tetrahydronaphthalen-2-yl)-1′H-pyrazole-4″-carbaldehyde]	≥ 100±4.0	6.23 ± 1 µM	80.3±10.8	> 7 µM	≥ 100±4.0	no or very mild effect	5.72 ± 1.1 µM	77.5±4.6	4.12 ± 1 µM	182 to 184 °C	61.9±2.8	4.39 ± 1 µM
CC(=O)O[C@H]1CC[C@H]2[C@@H]3CCc4cc(O)c(-c5nn(-c6ccc(C)cc6)cc5C=O)cc4[C@H]3CC[C@]12C [Compound 7b, 2-(4′-Formyl-1′-(4″-tolyl)-1′H-pyrazol-3′-yl)-estra-1,3,5(10)-triene-3,17β-diol-17-acetate]	100.1±2.1	–	98.7±15.6	–	100.4±5.1	–	–	≥ 100±4.3	–	229 to 231 °C	98.2±6.5	–
CC(=O)O[C@H]1CC[C@H]2[C@@H]3CCc4cc(O)c(-c5nn(-c6ccccc6)cc5CO)cc4[C@H]3CC[C@]12C [Compound 10a]	83.2±2.0	–	≥ 100±15.8	–	93.6±1.7	–	–	73.5±7.2	–	257 to 259 °C	63.6±17.8	–
CC(=O)O[C@H]1CC[C@H]2[C@@H]3CCc4cc5oc(=O)c6cn(-c7ccc(C)cc7)nc6c5cc4[C@H]3CC[C@]12C [Compound 9b]	68.0±0.4	–	≥ 100±4.5	–	≥ 100±4.2	–	–	≥ 100±0.8	–	264 to 266 °C	86.2±2.4	–
Cc1ccc(-n2cc(CO)c(-c3cc4c(cc3O)CC[C@@H]3[C@@H]4CC[C@]4(C)[C@@H](O)CC[C@@H]34)n2)cc1 [Compound 11b]	70.1±4.5	–	97.5±10.1	–	≥ 100±2.2	–	–	80.4±2.9	–	201 to 203 °C	74.3±2.3	–
CC(=O)c1cc2c(cc1O)CCCC2 [Compound 15, 3-Acetyl-5,6,7,8-tetrahydro-2-naphthol]	53.8±8.3	3.6 ± 1.2 µM	≥ 100±6.7	> 7 µM	≥ 100±3.7	no or very mild effect	> 7 µM	≥ 100±1.9	> 7 µM	70 to 72 °C	≥ 100±2.2	> 7 µM
CC(=O)O[C@H]1CC[C@H]2[C@@H]3CCc4cc(O)c(-c5nn(-c6ccc(C)cc6)cc5CO)cc4[C@H]3CC[C@]12C [Compound 10b]	68.3±2.2	–	≥ 100±6.8	–	96.9±3.8	–	–	87.6±0.7	–	254 to 256 °C	88.0±5.6	–
